The values below are quoted from earlier work in patent US6528086B2, “Methods and apparatus for drug delivery involving phase changing formulations” (Zars, Inc., priority 1999, dated 2003).

Each structure is given as a SMILES string.

The data set relates to tissues. The following applies: in vivo.

Turning to `CCCCNc1ccc(C(=O)OCCN(C)C)cc1` [Tetracaine], the “duration of anesthetic effect compared with lidocaine” value is listed as “longer lasting anesthetic effect on tissues than lidocaine”.
